Earlier results on one compound are cited in paper PMC9841982 (ACS Medicinal Chemistry Letters, 2022).

One data set has as its system murine pancreatic islets. Conditions: free TAK-242, murine islet transplantation.
The conditions of data set [1]: authors' earlier work with TAK-242.

The structures appear in SMILES notation.

`CCOC(=O)C1=CCCC[C@H]1S(=O)(=O)Nc1ccc(F)cc1Cl` [TAK-242, ethyl (6R)-6-[N-(2-Chloro-4-fluorophenyl)sulfamoyl]cyclohex-1-ene-1-carboxylate]: the “effect of free drug on islets and transplant outcome” value in the data set on murine pancreatic islets was “reduced sterile inflammation-mediated stress in islets during isolation and promoted successful transplant outcomes”. Further, the sulfonamide bond stability entry in data set [1] is recorded as “relatively stable”.
